# Where “and” joins values, the source holds several entries; their conditions need not be identical. Equal values may be shown once. Read-outs that look alike come from different tables or passages of the source.
# What was measured:
# [1] = test system: IFN-γ; details: cited from earlier work
# [2] = test system: Chronic-relapsing EAE
# Source text: Chronic—relapsing EAE was induced in female Biozzi mice by the injection of mouse spinal cord homogenate (MSCH) in CFA, following by re-injection of the encephalitogen one week later, in the same manner.
# [3] = test system: EAE; details: enteric-coated tablets
# Source text: As in Example 3B, observation began on day 8 and continued until the conclusion of the experiment, which, in this case, was day 57. […] EAE-related neurological signs appeared between day 14 and 54 as specified in Table 9. Animals were sacrificed when they reached score 4.
# [4] = test system: EAE
# Source text: EAE was induced in Lewis rats by the injection of guinea pig spinal cord homogenate in CFA into the hind legs.
# [5] = test system: IL-2; details: cited from earlier work
# [6] = test system: Experimental allergic Encephalomyelitis (EAE)
# Experimental: Rhesus monkeys were fed with the enteric coated capsules. 5 feedings before disease induction and 5 feedings after disease induction, on alternate days. Experimental allergic Encephalomyelitis (EAE) was induced by injecting 8 mg myelin basic protein (MBP) in complete Freund's adjuvant (CFA) intra-dermally into the leg. EAE symptoms were evaluated on the following scale:
# Evaluation of EAE clinical signs
# [7] = test system: exacerbating-remitting multiple sclerosis; details: daily subcutaneous injections, phase III; cited from earlier work
# [8] = test system: experimental allergic encephalomyelitis (EAE); details: cited from earlier work
# [9] = test system: T cell; details: Aharoni et al. 1997; cited from earlier work
# [10] = test system: Th2; details: cited from earlier work
# [11] = test system: IL-2; details: oral, enteric coated capsules, MS patients
# [12] = test system: EAE; details: monkey, in vivo
# [13] = test system: IL-10; details: oral, enteric coated capsules, MS patients
# [14] = test system: relapsing-remitting form of EAE; assay: Induction of relapsing-remitting EAE in Cynamologus monkeys by MBP in CFA; assay type: in vivo
# Experimental: A relapsing-remitting form of EAE was induced by the injection of emulsified MBP in CFA containing 3 mg/ml of Mycobacterium Tuberculosis (MT), intradermally into right & left footpads.
# Observation was initiated on day 8.
# [15] = oral solution daily from day 16
# [16] = all dose groups, daily gavage of solution
molecule,measurement,setting,value
"L-glutamic acid polymer with L-alanine, L-lysine and L-tyrosine, acetate (salt) [Copolymer 1]",pro-GVHD IFN-γ cytokine secretion,[1],prevented
same,EAE clinical symptoms of the second relapse,"[2]; oral solution 0.5, 2.5, 12.5 mg/kg/day from day 16, dose-dependent",reduced
same,"incidence of second relapse, severity of symptoms, duration of relapse",[2]; [15],suppressive effect was demonstrated in all parameters checked
same,most effective dose,[2]; [15],12.5 mg/kg
same,Incidence,[3]; 10 mg group,3/3
same,Mean Disease Onset Day,[3]; 10 mg group,30
same,Mean Maximal Score,[3]; 10 mg group,2.33
same,Mean Score,[3]; 10 mg group,1.3 ± 0.56
same,Incidence,[3]; 20 mg group,3/3
same,Mean Disease Onset Day,[3]; 20 mg group,30
same,Mean Maximal Score,[3]; 20 mg group,2.33
same,Mean Score,[3]; 20 mg group,1.6 ± 0.53
same,effect on incidence of the disease,[3]; 10 and 20 mg,does not change the incidence of the disease
same,most effective dosage,"[3]; 10 and 20 mg tested, confirms Example 3B",10 mg
same,% of sick rats,[4]; [16],reduced
same,disease duration,[4]; [16],reduced
same,disease onset,[4]; [16],delayed
same,severity of disease (mean score and mean maximal score),[4]; [16],reduced
same,effect on EAE,[4]; solution 0.1-10 mg/kg by gavage every day from induction to day 24,inhibited
same,pro-GVHD IL-2 cytokine secretion,[5],prevented
same,signs of EAE,"[6]; 20 mg in enteric coated capsules, 5 feedings before and 5 after induction on alternate days, first study (FIG. 1), one animal",did not develop any signs of disease till day 60
same,course of EAE upon treatment with 20 mg capsules,"[6]; animal first treated with 1 mg capsules, then 20 mg enteric coated capsules",healed completely
same,outcome of EAE,"[6]; second study (FIG. 2), capsules not gastro-protective (opened in the stomach)",died from the disease
same,protection from EAE,"[6]; second study (FIG. 2), enteric coated capsules 1, 10 and 20 mg",fully protected from EAE
same,progression of disability,[7],slow
same,relapse rate,[7],reduce
same,effect on EAE,"[8]; induced by various encephalitogens including MSCH, MBP, PLP, MOG",suppress
same,activity by injection,"[8]; injected subcutaneously, intra-peritoneally, intravenously or intramuscularly",active
same,T cell proliferation in response to host cell,[9],inhibited
same,beneficial Th2 anti-inflammatory response,[10],induced
same,change of IL-2,[11],decrease
same,Daily Clinical Score,[12],2
same,Incidence,[12],3/3 and 1/3
same,Mean Disease Onset Day,[12],14.33 and 18.33 and 23
same,most effective dosage,[12],10 mg
same,pattern of disease compared with placebo group,[12],no obvious improvement
same,change of IL-10,[13],increase
"MBP: myelin basic protein, natural component of the myelin sheath, injected in CFA to induce EAE (protein, UniProt P02686 1-304, looked up) Myelin basic protein: MGNHAGKRELNAEKASTNSETNRGESEKKRNLGELSRTTSEDNEVFGEADANQNNGTSSQDTAVTDSKRTADPKNAWQDAHPADPGSRPHLIRLFSRDAPGREDNTFKDRPSESDELQTIQEDSAATSESLDVMASQKRPSQRHGSKYLATASTMDHARHGFLPRHRDTGILDSIGRFFGGDRGAPKRGSGKDSHHPARTAHYGSLPQKSHGRTQDENPVVHFFKNIVTPRTPPPSQGKGRGLSLSRFSWGAEGQRPGFGYGGRASDYKSAHKGFKGVDAQGTLSKIFKLGGRDSRSGSPMARR",Daily Clinical Score,"[14]; Female Z-920, dose 2.5 mg, columns = days 14-32 after induction",3 and 5
same,Daily Clinical Score,"[14]; Male Z-701, dose 10 mg, columns = days 14-32",0
same,Daily Clinical Score,"[14]; Male Z-1669, dose 5 mg, columns = days 14-32",0
